Assay results as given in patent publication US20110053872A1, “Pharmaceutical Composition For Preventing And Treating Diabetic Nephropathy And The Preparation Method Thereof” (GUANGZHOU CONSUN MEDICINE R & D CO., LTD., priority 2009, published 2011).

Assays:
[1] = test system: DN model Wistar rats induced by streptozotocin; test: STZ DN model rat: pathohistological indicators; assay type: in vivo; settings: kidney
Protocol: (§1) The DN model Wistar rats were randomly divided into […] with 10 rats each group as indicated: normal glucose group; model group; CAL group (6, 2, 0.7 mg/kg); CAG group (9, 3, 1 mg/kg); CAL+CAG group (CAL:CAG, 2 mg/kg:1 mg/kg, 1 mg/kg:2 mg/kg); Radix Astragali group (5 g/kg); Aminoguanidine group (100 mg/kg).
(§2) The drugs or sodium chloride were intragastric adminstrated once each day for 14 weeks. After the administration, the total volume urine was collected by metabolic cage. The contents of urinary production, total protein, microalbumin and creatinine were determinated, and the biochemical indicators in blood was determinated using automatic biochemical analyzer. Then the kideny with fog Hahn fixation was reserved for histopathological examination.

[2] = test system: DN model Wistar rats induced by streptozotocin; test: STZ DN model rat: urinary production, total protein, microalbumin and creatinine; assay type: in vivo; settings: for Microalbumin: urine
Protocol: as §1, §2

[3] = test system: DN model Wistar rats induced by streptozotocin; test: STZ DN model rat: serum biochemical indicators; assay type: in vivo; parameters: AGEs (advanced glycosylation end products): unit not given here
Protocol: as §1, §2

rat mesangial cells [4] = test: ECM accrementition induced by high glucose (PAS staining, FIG. 1); assay type: cell-based; settings: 25 mM glucose
Protocol: wherein A: normal glucose group; B: high glucose group (25 mM); C: Radix Astragali group (RA, 50 mg/ml aqueous extract); D: CAL group (100 nM); E: CAL group (10 nM); F: CAL group (1 nM); G: CAG group (100 nM); H: CAG group (10 nM); I: CAG group (1 nM); J: CAL:CAG group (10 μg/ml:5 μg/ml). K: CAL:CAG group ([…]:10 μg/ml).
(§3) The treatment was the same as section 2.1 in Experiment 1. The measurement of matrix proliferation was measured by determinating the content of hydroxyproline and the expression of TGFβ-1.
(§4) The coverslips were pre-placed in the 24-wells plates to stick the cells. The cells were treated with various concentrations of reagents as indicated in Experiment 1. After the cells covered with coverslip, the supernatant was used for the determination of hydroxyproline and the slides of cells were treated with stained with immunohistochemical and PAS staining. The cells cultured without TGFβ-1 antibody were taken as the negative control.

[5] = test system: Rat mesangial cell line HBZY21; test: High glucose-induced rat mesangial cell proliferation (MTT reduction assay); assay type: cell-based; settings: 25 mM glucose, 24 h
Protocol: (§5) The mesangial cells in their exponential growth phase were cultured in 96-well plates at densities of 50000 cm^−2 in DMEM (5 mM glucose) at 37° C. in 5% CO2-95% air for 24 h. After pre-incubation in DMEM supplemented without fetal calf serum for 24 h, cells were then treated with various concentrations of glucose or AGEs for 24 h, 48 h, 72 h, 96 h, respectively.
(§6) According to the aboved method, after pre-incubation in DMEM supplemented without fetal calf serum for 24 h, cells were pretreated with 25 mM glucose, then were treated with various concentrations of reagents as indicated: normal glucose group (NG, 5.5 mM glucose); high glucose group (HG, 25 mM glucose); CAL group (CAL, 10, 100 nM); CAG group (CAG, 10, 100 nM); CAL+CAG group (CAL:CAG, 10 μg/ml:5 μg/ml, 5 μg/ml:10 μg/ml); Radix Astragali group (RA, 50 mg/ml aqueous extract). The plates were then incubated for 24 h. Proliferation was examined by MTT reduction assay. Experimental conditions were tested in sextuplicate (six wells of the 96-well plate per experimental condition).

TGFβ-1 = TGFβ-1 expression induced by high glucose (immunohistochemical staining, FIG. 2); assay type: cell-based, rat; settings: 25 mM glucose
Protocol: wherein A: normal glucose group; B: high glucose group (25 mM); C: negative control group; D: CAL group (100 nM); E: CAL group (10 nM); F: CAL group (1 nM); G: CAG group (100 nM); H: CAG group (10 nM); I: CAG group (1 nM); J: Radix Astragali group (RA, 50 mg/ml aqueous extract); K: CAL:CAG group (10 μg/ml:5 μg/ml); L: CAL:CAG group (5 μg/ml:10 μg/ml).
as §3, §4

rat mesangial cells [6] = test: Content of hydroxyproline in cell culture fluid of rat mesangial cells induced by high glucose; assay type: cell-based; settings: high glucose (25 mM)
Protocol: as §3, §4

[7] = test system: Rat mesangial cell line HBZY21; test: AGEs-induced rat mesangial cell proliferation (MTT reduction assay); assay type: cell-based; settings: 0.25 mg/ml AGEs, 24 h
Protocol: as §5
as §6, with “Cells” for “According to the aboved method, after pre-incubation in DMEM supplemented without fetal calf serum for 24 h, cells”, “0.25 mg/mlAGEs,” for “25 mM glucose,”, “AGEs” for “high glucose”, “(AGEs, 0.25 mg/mlAGEs);” for “(HG, 25 mM glucose);”

[8] = 100 mg/kg intragastric once each day for 14 weeks
[9] = 0.7 mg/kg intragastric once each day for 14 weeks
[10] = 2 mg/kg intragastric once each day for 14 weeks
[11] = 6 mg/kg intragastric once each day for 14 weeks
[12] = 1 mg/kg intragastric once each day for 14 weeks
[13] = 3 mg/kg intragastric once each day for 14 weeks
[14] = 9 mg/kg intragastric once each day for 14 weeks

N=C(N)NN [Aminoguanidine, reference compound]
ECM score (PAS %) [1, 8]: 26.5 ± 4.3 %
Patho-score [1, 8]: 2.1 ± 1.0
TGFβ-1 (%) [1, 8]: 11.7 ± 5.7 %
Urinary production [2, 8]: 36.2 ± 21.8 mL
Urine creatinine [2, 8]: 4.0 ± 2.3 mM
Urine protein [2, 8]: 43.2 ± 29.9 mg
Microalbumin [2, 8]: 1.00 ± 0.27 mg
AGEs (advanced glycosylation end products) [3, 8]: 283 ± 78
BUN (Blood urea nitrogen) [3, 8]: 6.6 ± 0.8 mmol/L
LDL [3, 8]: 2.01 ± 0.58 mmol/L
MDA (malonaldehyde) [3, 8]: 5.9 ± 1.7 nmol/mL
SOD (superoxide dismutase) [3, 8]: 516 ± 20 U/ml
Scr (serum creatinine) [3, 8]: 77.7 ± 20.3 µmol/L
triglyceride [3, 8]: 3.35 ± 0.87 mmol/L

COc1ccc(-c2coc3cc(O)ccc3c2=O)cc1O [CAL]
ECM accrementition induced by high glucose (rat mesangial cells [4]): inhibited
ECM score (PAS %) [1, 9]: 33.1 ± 5.1%
Patho-score [1, 9]: 2.7 ± 1.0
TGFβ-1 (%) [1, 9]: 19.3 ± 6.3 %
ECM score (PAS %) [1, 10]: 29.8 ± 5.6 %
Patho-score [1, 10]: 1.8 ± 1.3
TGFβ-1 (%) [1, 10]: 17.6 ± 5.8 %
ECM score (PAS %) [1, 11]: 27.0 ± 5.5 %
Patho-score [1, 11]: 1.6 ± 1.1
TGFβ-1 (%) [1, 11]: 8.8 ± 3.2 %
OD value (λ = 490 nm) ([5]; 10 nM): 0.34 ± 0.02
OD value (λ = 490 nm) ([5]; 100 nM): 0.33 ± 0.05
expression of TGFβ-1 induced by high glucose (TGFβ-1): inhibited
Content of hydroxyproline in cell culture fluid (rat mesangial cells [6]; 10 nM): 7.15 ± 1.19 µg/mL
Content of hydroxyproline in cell culture fluid (rat mesangial cells [6]; 100 nM): 6.65 ± 1.74 µg/mL
OD value (λ = 490 nm) ([7]; 10 nM): 0.42 ± 0.04
OD value (λ = 490 nm) ([7]; 100 nM): 0.34 ± 0.04
Urinary production [2, 9]: 59.9 ± 21.8 mL
Urine creatinine [2, 9]: 1.4 ± 0.6 mM
Urine protein [2, 9]: 69.1 ± 20.4 mg
Urinary production [2, 10]: 41.3 ± 16.8 mL
Urine creatinine [2, 10]: 2.9 ± 1.2 mM
Urine protein [2, 10]: 54.0 ± 17.4 mg
Urinary production [2, 11]: 35.9 ± 22.2 mL
Urine creatinine [2, 11]: 4.3 ± 2.0 mM
Urine protein [2, 11]: 46.2 ± 21.3 mg
Microalbumin [2, 9]: 1.57 ± 0.56 mg
Microalbumin [2, 10]: 0.93 ± 0.55 mg
Microalbumin [2, 11]: 0.92 ± 0.42 mg
AGEs (advanced glycosylation end products) [3, 9]: 290 ± 59
BUN (Blood urea nitrogen) [3, 9]: 7.0 ± 1.0 mmol/L
LDL [3, 9]: 1.91 ± 0.55 mmol/L
MDA (malonaldehyde) [3, 9]: 7.8 ± 2.3 nmol/mL
SOD (superoxide dismutase) [3, 9]: 498 ± 33 U/ml
Scr (serum creatinine) [3, 9]: 91.0 ± 31.1 µmol/L
triglyceride [3, 9]: 3.23 ± 0.76 mmol/L
AGEs (advanced glycosylation end products) [3, 10]: 289 ± 56
BUN (Blood urea nitrogen) [3, 10]: 6.6 ± 1.2 mmol/L
LDL [3, 10]: 1.51 ± 0.53 mmol/L
MDA (malonaldehyde) [3, 10]: 6.8 ± 1.9 nmol/mL
SOD (superoxide dismutase) [3, 10]: 513 ± 41 U/ml
Scr (serum creatinine) [3, 10]: 76.6 ± 24.5 µmol/L
triglyceride [3, 10]: 2.76 ± 0.80 mmol/L
AGEs (advanced glycosylation end products) [3, 11]: 281 ± 78
BUN (Blood urea nitrogen) [3, 11]: 6.5 ± 1.5 mmol/L
LDL [3, 11]: 1.43 ± 0.36 mmol/L
MDA (malonaldehyde) [3, 11]: 6.8 ± 1.3 nmol/mL
SOD (superoxide dismutase) [3, 11]: 520 ± 29 U/ml
Scr (serum creatinine) [3, 11]: 75.2 ± 17.1 µmol/L
triglyceride [3, 11]: 2.57 ± 0.80 mmol/L

COc1ccc(-c2coc3cc(O[C@@H]4O[C@H](CO)[C@@H](O)[C@H](O)[C@H]4O)ccc3c2=O)cc1O [CAG, 3′-hydroxy-4′-methoxyisoflavone-7-O-β-D-glucopyranoside]
ECM accrementition induced by high glucose (rat mesangial cells [4]): inhibited
ECM score (PAS %) [1, 12]: 32.5 ± 4.1%
Patho-score [1, 12]: 2.8 ± 0.9
TGFβ-1 (%) [1, 12]: 20.0 ± 4.3 %
ECM score (PAS %) [1, 13]: 28.9 ± 5.4 %
Patho-score [1, 13]: 1.9 ± 1.1
TGFβ-1 (%) [1, 13]: 16.2 ± 4.7 %
ECM score (PAS %) [1, 14]: 26.9 ± 4.5 %
Patho-score [1, 14]: 1.7 ± 0.9
TGFβ-1 (%) [1, 14]: 9.1 ± 2.2 %
OD value (λ = 490 nm) ([5]; 10 nM): 0.35 ± 0.04
OD value (λ = 490 nm) ([5]; 100 nM): 0.33 ± 0.03
expression of TGFβ-1 induced by high glucose (TGFβ-1): inhibited
Content of hydroxyproline in cell culture fluid (rat mesangial cells [6]; 10 nM): 6.25 ± 1.20 µg/mL
Content of hydroxyproline in cell culture fluid (rat mesangial cells [6]; 100 nM): 6.00 ± 1.53 µg/mL
OD value (λ = 490 nm) ([7]; 10 nM): 0.34 ± 0.06
OD value (λ = 490 nm) ([7]; 100 nM): 0.33 ± 0.04
Urinary production [2, 12]: 58.9 ± 20.5 mL
Urine creatinine [2, 12]: 1.3 ± 0.6 mM
Urine protein [2, 12]: 67.1 ± 18.4 mg
Urinary production [2, 13]: 42.3 ± 12.8 mL
Urine creatinine [2, 13]: 2.7 ± 1.1 mM
Urine protein [2, 13]: 55.0 ± 13.4 mg
Urinary production [2, 14]: 33.9 ± 20.2 mL
Urine creatinine [2, 14]: 4.2 ± 1.6 mM
Urine protein [2, 14]: 44.2 ± 20.6 mg
Microalbumin [2, 12]: 1.52 ± 0.56 mg
Microalbumin [2, 13]: 0.90 ± 0.45 mg
Microalbumin [2, 14]: 0.93 ± 0.22 mg
AGEs (advanced glycosylation end products) [3, 12]: 288 ± 44
BUN (Blood urea nitrogen) [3, 12]: 6.9 ± 0.9 mmol/L
LDL [3, 12]: 1.94 ± 0.44 mmol/L
MDA (malonaldehyde) [3, 12]: 7.9 ± 1.6 nmol/mL
SOD (superoxide dismutase) [3, 12]: 490 ± 23 U/ml
Scr (serum creatinine) [3, 12]: 89.0 ± 21.1 µmol/L
triglyceride [3, 12]: 3.20 ± 0.71 mmol/L
AGEs (advanced glycosylation end products) [3, 13]: 281 ± 46
BUN (Blood urea nitrogen) [3, 13]: 6.7 ± 0.8 mmol/L
LDL [3, 13]: 1.60 ± 0.43 mmol/L
MDA (malonaldehyde) [3, 13]: 6.5 ± 1.4 nmol/mL
SOD (superoxide dismutase) [3, 13]: 502 ± 31 U/ml
Scr (serum creatinine) [3, 13]: 73.5 ± 22.5 µmol/L
triglyceride [3, 13]: 2.66 ± 0.72 mmol/L
AGEs (advanced glycosylation end products) [3, 14]: 275 ± 68
BUN (Blood urea nitrogen) [3, 14]: 5.9 ± 1.6 mmol/L
LDL [3, 14]: 1.23 ± 0.26 mmol/L
MDA (malonaldehyde) [3, 14]: 6.5 ± 1.2 nmol/mL
SOD (superoxide dismutase) [3, 14]: 512 ± 19 U/ml
Scr (serum creatinine) [3, 14]: 74.2 ± 16.0 µmol/L
triglyceride [3, 14]: 2.43 ± 0.70 mmol/L
